Assay results published in article PMC5634784, “Clearance of beta-amyloid is facilitated by apolipoprotein E and circulating high-density lipoproteins in bioengineered human vessels” (eLife, 2017).
One block for each compound: values may come before it.

How the values were obtained:
Format in all cases: cell-based, human
[1] = system: endothelial barrier of bioengineered vessels; test: Endothelium integrity: Evans blue extravasation; conditions: 0.5% in circulation loop 10 min, PBS wash 20 min
Method: Evans blue (Sigma-Aldrich) was injected at a final concentration of 0.5% in the circulation loop of the bioreactor for 10 min followed by continuous PBS washing for 20 min. Vessels were cut open longitudinally and en face preparations were analysed macroscopically with photo documentation. Restriction of paracellular transport was determined by measuring FITC dextran extravasation to the tissue chamber as described ([Gaillard et al., 2001]). […] After 1 hr tissue media was collected, fluorescent was read at RT on an EnSpire 2300 Multilabel Plate Reader (492Ex/518Em) and the permeability coefficient (Papp) was calculated using the following equation: Papp=(dQ/dt)*(1/A*C0*60) where dQ/dt is the amount of FITC-dextran transported per minute (ng/min), A is the surface area of the tissue (cm [[Attems and Jellinger, 2014]]), C0 is the initial concentration of FITC-Dextran (ng/ml) and 60 is the conversion from minutes to seconds.

[2] = system: bioengineered tripartite vessels; test: Aβ accumulation in tripartite bioengineered cerebral vessels (ELISA); conditions: GW3965 0.8 μM 72 hr, HDL 200 μg/ml luminal
Method: Bioengineered constructs were fabricated using a dynamic, semi-pulsatile flow bioreactor system. Tubular biodegradable scaffolds (length 1.5 cm and inner diameter 2 mm) were produced as described ([Robert et al., 2013a]; [Robert et al., 2017]) with minor modifications. Briefly, non-woven polyglycolic acid (PGA, Biomedical Structure, Warwick, RI) meshes (thickness: 1 mm and density: 70 mg/cc) were dip-coated with polycaprolactone (PCL) and polylactate (PLA) by dipping PGA mesh in a solution of 1.75% (w/w) PCL/PLA/tetrahydrofuran (THF) solution (Sigma-Aldrich, St. Louis, MO), shaped into tubes using heat, and externally coated with a 10% PCL/THF (w/w) solution. Scaffolds were sterilized by immersion in 70% ethanol for 30 min followed by three PBS washes and then immersion in advanced DMEM supplemented with 10% FBS for at least 12 hr. […]
All experiments were conducted under an approved clinical protocol (UBC Clinical Ethics Research Board H14-03357). […] Total protein concentration was assessed using the BCA assay (Thermofisher Scientific). […] ApoE concentrations were measured using ELISA as previously described ([Fan et al., 2016]). […]

[3] = system: apoE secretion by astrocytes; test: Native apoE secretion by astrocytes in tripartite vessels (ELISA); conditions: astrocytes APOE3/E3, GW3965 1 μM circulated through lumen 72 hr
Method: All experiments were conducted under an approved clinical protocol (UBC Clinical Ethics Research Board H14-03357). Upon receipt of written informed consent, 100 ml of fasted blood was collected from normolipidemic healthy donors into vacutainer tubes containing EDTA. Plasma HDL (1.063-1.21 g/ml) was isolated by sequential potassium bromide gradient ultracentrifugation as described ([Robert et al., 2013b]). The purity of the HDL preparations was verified by sodium dodecyl sulfate-polyacrylamide gel electrophoresis (SDS-PAGE) followed by Coomassie blue staining to ensure no LDL or albumin contamination (not shown). Total protein concentration was assessed using the BCA assay (Thermofisher Scientific). Recombinant apoE2 and apoE4 were commercially purchased and solubilized following the manufacture's instructions (ABCAM, apoE2 ab55210, apoE3 ab123764 and apoE4 ab50243). […] ApoE concentrations were measured using ELISA as previously described ([Fan et al., 2016]). Briefly, ELISA plates were coated overnight with anti-human apoE mAB […] antibody (MabTech, Cincinnati, OH, RRID: AB_1925746) at 1.55 μg/mL in PBS at 4°C, washed two times with PBST (0.05% Tween 20 in PBS), and blocked with 0.1% Blocker A (MesoScale Discovery, Rockville, MA) in PBST. […] Fluorescence was read after 15 min at RT on an EnSpire 2300 Multilabel Plate Reader (325Ex/420Em).

[4] = system: bioengineered tripartite vessels; test: Aβ transport across tripartite bioengineered cerebral vessels (ELISA); conditions: for transport of fibrils compared to monomers: tripartite vessels, pre-aggregated (37°C, 48 hr) or monomeric Aβ 1 μM anteluminal
Method: Bioengineered constructs were fabricated using a dynamic, semi-pulsatile flow bioreactor system. Tubular biodegradable scaffolds (length 1.5 cm and inner diameter 2 mm) were produced as described ([Robert et al., 2013a]; [Robert et al., 2017]) with minor modifications. Briefly, non-woven polyglycolic acid (PGA, Biomedical Structure, Warwick, RI) meshes (thickness: 1 mm and density: 70 mg/cc) were dip-coated with polycaprolactone (PCL) and polylactate (PLA) by dipping PGA mesh in a solution of 1.75% (w/w) PCL/PLA/tetrahydrofuran (THF) solution (Sigma-Aldrich, St. Louis, MO), shaped into tubes using heat, and externally coated with a 10% PCL/THF (w/w) solution. Scaffolds were sterilized by immersion in 70% ethanol for 30 min followed by three PBS washes and then immersion in advanced DMEM supplemented with 10% FBS for at least 12 hr. UCMFB were seeded at density of 2−3 × 10^6 cells/cm^2 on the inner surface of the scaffold using fibrin (fibrinogen 10 mg clottable protein/ml PBS and thrombin 100–10 mU/ml PBS) as a cell carrier that was added directly to the scaffold, then incubated under static conditions for a minimum of 3 days before exposure to dynamic flow. The flow of nutrient medium (Advanced DMEM supplemented with 10% FBS, 1% L-glutamine and 0.05% Pen/Strep) was directed through the lumen of the bioreactor circulation loop to mimic blood flow for a minimum of one week. Vascular intermediates were then seeded with HUVEC (1 × 10^6 cells/cm^2) and cultivated first in static conditions for a minimum of 5 days in EGM−2 supplemented as above. For bipartite vessels, after the static phase, vascular grafts were placed back in the bioreactor for 14 additional days with increasing medium flow to a final rate of 10 ml/min by the 10th day). For tripartite vessels, after the static phase after HUVEC addition, primary astrocytes were seeded (1 × 10^6 cells/cm^2) using fibrin as a cell carrier as above on the antelumen side of the tissue. After 5 min at RT, grafts were placed under flow conditions with EGM-2 supplemented as above in the circulation chamber and complete astrocyte medium in the tissue chamber for 14 additional days with increasing medium flow to 10 ml/min by the 10th day.
The HFIP was removed by evaporation overnight and stocks were stored at −20°C. On the day of the assay, soluble monomers were prepared by reconstituting the peptide film in DMSO to 5 mM, diluted further to 100 µM in RPMI without FBS. 100 μl of Aβ solution was injected in the tissue chamber containing 900 μl of DMEM (Gibco) without FBS to the desired concentration using a syringe under flow conditions. […] For luminal recovery, 100 μl circulating medium was collected at the indicated time.
All experiments were conducted under an approved clinical protocol (UBC Clinical Ethics Research Board H14-03357). Upon receipt of written informed consent, 100 ml of fasted blood was collected from normolipidemic healthy donors into vacutainer tubes containing EDTA. Plasma HDL (1.063–1.21 g/ml) was isolated by sequential potassium bromide gradient ultracentrifugation as described ([Robert et al., 2013b]). […] Total protein concentration was assessed using the BCA assay (Thermofisher Scientific). Recombinant apoE2 and apoE4 were commercially purchased and solubilized following the manufacture’s instructions (ABCAM, apoE2 ab55210, apoE3 ab123764 and apoE4 ab50243). […] ApoE concentrations were measured using ELISA as previously described ([Fan et al., 2016]). […]

NO synthase = test: NO measurement: conversion of L-3H-arginine to L-3H-citruline in tripartite vessels
Method: NO synthesis was measured as described ([Robert et al., 2013a]) using a commercial NOS activity assay kit (Caymenchemical, Ann Arbor, MI). Briefly, a 2–3 mm ring of vascular tissue was mechanically ground in 150 μl of ice cold homogenized buffer (25 mM Tris-Cl, pH7.4, 1 mM EDTA and 1 mM EGTA) and centrifuged 15 min at 4°C at 10,000 g. The supernatant was aliquoted and incubated in reaction buffer containing 25 mM Tris-Cl, pH7.4, 0.25 mM EDTA, 0.6 mM CaCl2, 1 mM NADP, 200 nM calmodulin, 3 µM tetrahydrobiopterin, 1 µM flavin adenine dinucleotide, 1 µM flavin adenine monoucleotide and 0.2 µCi L-^3H-arginine; PerkinElmer, Waltham, MA) in the presence of 10 nM acetylcholine (Ach), 0.2 mg/ml HDL or 1 mM L-NG-nitroarginine methyl ester (L-NAME). After 60 min at 37°C, the reaction was stopped by adding 400 μl of stop buffer ([…] HEPES, 5 mM EDTA, pH 5.5). The solution was loaded onto an ion exchange column equilibrated with stop buffer to separate L-^3H-citruline from L-^3H-arginine. Scintillation mix (Ultimate Gold, PerkinElmer) was added to the supernatant and counted using LS6500 β-counter (Beckman Coulter, Brea, CA). The percent citrulline formed was calculated as follows: % conversion = (cpm reaction-cpm background)/cpm total *100.

[5] = system: bioengineered bipartite vessels; test: Aβ transport from anteluminal tissue chamber to luminal circulation across bipartite vessels (ELISA); conditions: 1 μM monomers anteluminal, luminal medium sampled over 4 hr
Method: Bioengineered constructs were fabricated using a dynamic, semi-pulsatile flow bioreactor system. Tubular biodegradable scaffolds (length 1.5 cm and inner diameter 2 mm) were produced as described ([Robert et al., 2013a]; [Robert et al., 2017]) with minor modifications. Briefly, non-woven polyglycolic acid (PGA, Biomedical Structure, Warwick, RI) meshes (thickness: 1 mm and density: 70 mg/cc) were dip-coated with polycaprolactone (PCL) and polylactate (PLA) by dipping PGA mesh in a solution of 1.75% (w/w) PCL/PLA/tetrahydrofuran (THF) solution (Sigma-Aldrich, St. Louis, MO), shaped into tubes using heat, and externally coated with a 10% PCL/THF (w/w) solution. Scaffolds were sterilized by immersion in 70% ethanol for 30 min followed by three PBS washes and then immersion in advanced DMEM supplemented with 10% FBS for at least 12 hr. UCMFB were seeded at density of 2−3 × 10^6 cells/cm^2 on the inner surface of the scaffold using fibrin (fibrinogen 10 mg clottable protein/ml PBS and thrombin 100–10 mU/ml PBS) as a cell carrier that was added directly to the scaffold, then incubated under static conditions for a minimum of 3 days before exposure to dynamic flow. The flow of nutrient medium (Advanced DMEM supplemented with 10% FBS, 1% L-glutamine and 0.05% Pen/Strep) was directed through the lumen of the bioreactor circulation loop to mimic blood flow for a minimum of one week. […]

[6] = system: bioengineered bipartite vessels; test: Aβ fibrillization in bioengineered vessels (Thioflavin-S staining, Thioflavin-T quantification)

Evans blue penetration into vessels with endothelium ([1]; vessels seeded with EC): excluded
Compound: Cc1cc(-c2ccc(/N=N/c3ccc4c(S(=O)(=O)O)cc(S(=O)(=O)O)c(N)c4c3O)c(C)c2)ccc1/N=N/c1ccc2c(S(=O)(=O)O)cc(S(=O)(=O)O)c(N)c2c1O [Evans blue]
Evans blue penetration into tissue without EC ([1]; tissue prepared without EC): penetrated into tissue prepared without EC

Compound: O=C(O)Cc1cccc(OCCCN(Cc2cccc(C(F)(F)F)c2Cl)CC(c2ccccc2)c2ccccc2)c1 [GW3965]
effect on accumulation of Aβ40 within tripartite tissues after 24 hr ([2]; Aβ40 1 μM anteluminal): neither GW3965, HDL, nor both GW3965 and HDL affected accumulation
effect on accumulation of Aβ42 within tripartite tissues after 24 hr ([2]; Aβ42 1 μM anteluminal): neither GW3965, HDL, nor both GW3965 and HDL affected accumulation
secretion of native apoE into medium [3]: significantly stimulated the secretion of native apoE
effect on Aβ40 transport through tripartite vessels over 4 hr ([4]; Aβ40 1 μM anteluminal, GW3965 0.8 μM 72 hr, HDL 200 μg/ml luminal): neither GW3965 alone nor HDL alone modified the rate
effect on Aβ42 transport through tripartite vessels over 4 hr ([4]; Aβ42 1 μM anteluminal, GW3965 0.8 μM 72 hr, HDL 200 μg/ml luminal): neither GW3965 alone nor HDL alone modified the rate

Compound: COC(=O)[C@@H](N)CCCNC(N)=N[N+](=O)[O-] [L-NAME, L-NG-nitroarginine methyl ester]
NO production in the presence of NO synthase inhibitor (NO synthase; 1 mM L-NAME with Ach or HDL stimulation, 60 min): the conversion was blocked

Compound: CC(=O)OCC[N+](C)(C)C [acetylcholine]
NO production: conversion of L-3H-arginine to L-3H-citruline (NO synthase; 10 nM acetylcholine or 200 μg/ml HDL, 60 min at 37°C): significant increase

Compound: Aβ40 fibrils: Aβ40 incubated at 37°C for 48 hr after reconstitution in RPMI
transport of fibrils compared to monomers ([4]; over 4 hr): significantly slower transport

Compound: Aβ42 fibrils: Aβ42 incubated at 37°C for 48 hr after reconstitution in RPMI
transport of fibrils compared to monomers ([4]; over 4 hr): significantly slower transport

Compound: Aβ42: Recombinant Aβ42 peptide (California Peptide Research), soluble monomers
Aβ transport into circulating medium, bioengineered vessels versus scaffold-only controls [5]: transported at a slower rate
beta-sheet formation in tissue lysates (Thioflavin-T) ([6]; 1 μM monomers anteluminal, RIPA lysate, 20 μM Thioflavin-T, ex 440 nm / em 490 nm): increasing signal over time
Aβ fibrillization in the bioengineered vessels (Thioflavin-S) ([6]; monomers 0, 0.1, 1.0 and 10 μM anteluminal, 48 hr, Thioflavin-S staining): dose-dependent fibrillization
Aβ recovery into circulation medium, tripartite compared to bipartite vessels ([4]; 1 μM monomers anteluminal, over 4 hr): increased
